Test results from patent US10294202B2, “Pyrrolidinones as herbicides” (FMC Corporation, priority 2013, dated 2019).

Assays:
barnyardgrass [1] = assay: Test A pre-/postemergence herbicide test; assay type: in vivo, Echinochloa crus-galli
Procedure, shortened: (§1)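 Directed soil spray to seeded pots (preemergence) or spray onto one- to two-leaf seedlings 2–10 cm tall (postemergence); loam/sand substrate throughout. Evaluated visually after about 10 days against untreated plants, 0 = no effect, 100 = complete control.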

kochia = assay: Test A pre-/postemergence herbicide test; assay type: in vivo, Kochia scoparia
Procedure, shortened: as §1

ragweed = assay: Test A pre-/postemergence herbicide test; assay type: in vivo, Ambrosia elatior
Procedure, shortened: as §1

ryegrass, Italian = assay: Test A pre-/postemergence herbicide test; assay type: in vivo, Lolium multiflorum
Procedure, shortened: as §1

giant foxtail = assay: Test A pre-/postemergence herbicide test; assay type: in vivo, Setaria faberii
Procedure, shortened: as §1

pigweed = assay: Test A pre-/postemergence herbicide test; assay type: in vivo, Amaranthus retroflexus
Procedure, shortened: as §1

wheat = assay: Test A pre-/postemergence herbicide test; assay type: in vivo, Triticum aestivum; details: Postemergence
Procedure, shortened: as §1

corn = assay: Test A pre-/postemergence herbicide test; assay type: in vivo, Zea mays; details: Postemergence
Procedure, shortened: as §1

blackgrass = assay: Test A postemergence herbicide test; assay type: in vivo, Alopecurus myosuroides
Procedure, shortened: (§2)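 Potted in loam soil/sand blend; postemergence application at 1–2 leaf stage (2–10 cm). Greenhouse ~10 d. Visual injury vs untreated, 0–100 scale; 100 = complete control.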

galium = assay: Test A postemergence herbicide test; assay type: in vivo, Galium aparine
Procedure, shortened: as §2

rice = assay: Test B flooded paddy test; assay type: in vivo, Oryza sativa; details: 500 g ai/ha, Flood; scale of 0 to 100 where 0 is no effect and 100 is complete control
Procedure, shortened: (§3)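 First, plants reach the 2-leaf stage; next, pots are flooded to 3 cm and compound is delivered into the water; finally, after 13 to 15 greenhouse days at constant depth, injury is graded visually from 0 to 100 against controls.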

sedge, umbrella = assay: Test B flooded paddy test; assay type: in vivo, Cyperus difformis; details: 500 g ai/ha, Flood; scale of 0 to 100 where 0 is no effect and 100 is complete control
Procedure, shortened: as §3

ducksalad = assay: Test B flooded paddy test; assay type: in vivo, Heteranthera limosa; details: 500 g ai/ha, Flood; scale of 0 to 100 where 0 is no effect and 100 is complete control
Procedure, shortened: as §3

barnyardgrass [2] = assay: Test B flooded paddy test; assay type: in vivo, Echinochloa crus-galli; details: 500 g ai/ha, Flood; scale of 0 to 100 where 0 is no effect and 100 is complete control
Procedure, shortened: as §3

[3] = Postemergence, 125 g ai/ha, visual rating on 0 to 100 scale (0 no effect, 100 complete control), approx. 10 days
[4] = Postemergence, 500 g ai/ha, 0 to 100 scale (0 no effect, 100 complete control)
[5] = Preemergence, 125 g ai/ha, 0 to 100 scale where 0 is no effect and 100 is complete control
[6] = preemergence, 500 g ai/ha, 0 to 100 scale, 0 is no effect and 100 is complete control
[7] = Preemergence, 500 g ai/ha, visual rating on 0 to 100 scale (0 no effect, 100 complete control)
[8] = 125 g ai/ha, visual rating on 0 to 100 scale (0 no effect, 100 complete control), approx. 10 days
[9] = 500 g ai/ha, 0 to 100 scale (0 no effect, 100 complete control)

SMILES | Plant response rating, Barnyardgrass (barnyardgrass [1]; [3]) | Plant response rating, Barnyardgrass (barnyardgrass [1]; [4]) | Plant response rating, Barnyardgrass (barnyardgrass [1]; [5]) | Plant response rating, Kochia (kochia; [3]) | Plant response rating, Kochia (kochia; [4]) | Plant response rating, Kochia (kochia; [5]) | Plant response rating, Ragweed (ragweed; [3]) | Plant response rating, Ragweed (ragweed; [4]) | Plant response rating, Ragweed (ragweed; [5]) | Plant response rating, Ryegrass, Italian (ryegrass, Italian; [3]) | Plant response rating, Ryegrass, Italian (ryegrass, Italian; [4]) | Plant response rating, Ryegrass, Italian (ryegrass, Italian; [5]) | Ryegrass, Italian plant response rating (ryegrass, Italian; [7]) | Plant response rating, Foxtail, Giant (giant foxtail; [3]) | Plant response rating, Foxtail, Giant (giant foxtail; [4]) | Plant response rating, Foxtail, Giant (giant foxtail; [5]) | Plant response rating, Pigweed (pigweed; [3]) | Plant response rating, Pigweed (pigweed; [4]) | Plant response rating, Pigweed (pigweed; [5]) | Plant response rating, Wheat (wheat; [8]) | also measured
O=C1NCC(c2cc3ccccc3s2)C1C(=O)Nc1ccccc1F (stereo not drawn) [Compound 295] | 0 | 50 | 0 | 0 | 0 | 0 | 0 | 0 | 0 | 0 | 0 | 0 | 0 | 0 | 0 | 0 | 0 | 0 | 0 | 0 | Plant response rating, Barnyardgrass (barnyardgrass [1]; [6]): 70; Plant response rating, Kochia (kochia; [6]): 0; Plant response rating, Ragweed (ragweed; [6]): 0; Plant response rating, Foxtail, Giant (giant foxtail; [6]): 20; Plant response rating, Pigweed (pigweed; [6]): 0; Plant response rating, Wheat (wheat; [9]): 0; Plant response rating, Corn (corn; [8]): 0; Plant response rating, Corn (corn; [9]): 0; Plant response rating, Blackgrass (blackgrass; [8]): 0; Plant response rating, Blackgrass (blackgrass; [9]): 0; Plant response rating, Galium (galium; [8]): 0; Plant response rating, Galium (galium; [9]): 10; Plant response rating, Rice (rice): 0; Plant response rating, Sedge, Umbrella (sedge, umbrella): 0; Plant response rating, Ducksalad (ducksalad): 40; Plant response rating, Barnyardgrass (barnyardgrass [2]): 30
O=C1NCC(c2cc3ccccc3s2)C1C(=O)Nc1cccc(F)c1F (stereo not drawn) [Compound 296] | 0 | 20 | 0 | 0 | 0 | 0 | 0 | 0 | 0 | 0 | 0 | 0 | 0 | 0 | 0 | 0 | 0 | 0 | 0 | 0 | Plant response rating, Barnyardgrass (barnyardgrass [1]; [6]): 0; Plant response rating, Kochia (kochia; [6]): 0; Plant response rating, Ragweed (ragweed; [6]): 0; Plant response rating, Foxtail, Giant (giant foxtail; [6]): 0; Plant response rating, Pigweed (pigweed; [6]): 0; Plant response rating, Wheat (wheat; [9]): 0; Plant response rating, Corn (corn; [8]): 0; Plant response rating, Corn (corn; [9]): 0; Plant response rating, Blackgrass (blackgrass; [8]): 0; Plant response rating, Blackgrass (blackgrass; [9]): 0; Plant response rating, Galium (galium; [8]): 0; Plant response rating, Galium (galium; [9]): 0; Plant response rating, Rice (rice): 0; Plant response rating, Sedge, Umbrella (sedge, umbrella): 0; Plant response rating, Ducksalad (ducksalad): 60; Plant response rating, Barnyardgrass (barnyardgrass [2]): 30
O=C1NCC(c2cc3ccccc3s2)C1C(=O)Nc1ccccc1C(F)(F)F (stereo not drawn) [Compound 297] | 0 | 0 | 0 | 0 | 0 | 0 | 0 | 0 | 0 | 0 | 0 | 0 | 0 | 0 | 0 | 30 | 0 | 0 | 0 | 0 | Plant response rating, Barnyardgrass (barnyardgrass [1]; [6]): 50; Plant response rating, Kochia (kochia; [6]): 0; Plant response rating, Ragweed (ragweed; [6]): 0; Plant response rating, Foxtail, Giant (giant foxtail; [6]): 70; Plant response rating, Pigweed (pigweed; [6]): 0; Plant response rating, Wheat (wheat; [9]): 0; Plant response rating, Corn (corn; [8]): 0; Plant response rating, Corn (corn; [9]): 0; Plant response rating, Blackgrass (blackgrass; [8]): 0; Plant response rating, Blackgrass (blackgrass; [9]): 10; Plant response rating, Galium (galium; [8]): 0; Plant response rating, Galium (galium; [9]): 0; Plant response rating, Rice (rice): 0; Plant response rating, Sedge, Umbrella (sedge, umbrella): 0; Plant response rating, Ducksalad (ducksalad): 0; Plant response rating, Barnyardgrass (barnyardgrass [2]): 0
O=C1NCC(c2cnn(CC(F)(F)F)c2)C1C(=O)Nc1cccc(F)c1F (stereo not drawn) [Compound 299] | 30 | 70 | 10 | 0 | 0 | 0 | 0 | 0 | 0 | 0 | 0 | 0 | 0 | 0 | 50 | 50 | 0 | 0 | 0 | 0 | Plant response rating, Barnyardgrass (barnyardgrass [1]; [6]): 70; Plant response rating, Kochia (kochia; [6]): 0; Plant response rating, Ragweed (ragweed; [6]): 0; Plant response rating, Foxtail, Giant (giant foxtail; [6]): 80; Plant response rating, Pigweed (pigweed; [6]): 0; Plant response rating, Wheat (wheat; [9]): 0; Plant response rating, Corn (corn; [8]): 0; Plant response rating, Corn (corn; [9]): 0; Plant response rating, Blackgrass (blackgrass; [8]): 0; Plant response rating, Blackgrass (blackgrass; [9]): 0; Plant response rating, Galium (galium; [8]): 0; Plant response rating, Galium (galium; [9]): 0; Plant response rating, Rice (rice): 0; Plant response rating, Sedge, Umbrella (sedge, umbrella): 0; Plant response rating, Ducksalad (ducksalad): 50; Plant response rating, Barnyardgrass (barnyardgrass [2]): 30
CC1(c2ccccc2)CNC(=O)C1C(=O)Nc1ccccc1F (stereo not drawn) [Compound 301] | 0 | 0 | 0 | 0 | 0 | 0 | 0 | 0 | 0 | 0 | 0 | 0 | 0 | 0 | 0 | 0 | 0 | 0 | 0 | 0 | Barnyardgrass plant response rating (barnyardgrass [1]; [7]): 0; Kochia plant response rating (kochia; [7]): 0; Ragweed plant response rating (ragweed; [7]): 0; Foxtail, Giant plant response rating (giant foxtail; [7]): 0; Pigweed plant response rating (pigweed; [7]): 0; Plant response rating, Wheat (wheat; [9]): 0; Plant response rating, Corn (corn; [8]): 0; Plant response rating, Corn (corn; [9]): 0; Plant response rating, Blackgrass (blackgrass; [8]): 0; Plant response rating, Blackgrass (blackgrass; [9]): 0; Plant response rating, Galium (galium; [8]): 0; Plant response rating, Galium (galium; [9]): 0; Plant response rating, Rice (rice): 0; Plant response rating, Sedge, Umbrella (sedge, umbrella): 0; Plant response rating, Ducksalad (ducksalad): 0; Plant response rating, Barnyardgrass (barnyardgrass [2]): 0
